Patent publication US20190032014A1, “USING MICROBIOTA METABOLITES TO DIFFERENTIATE NAÏVE T-CELLS AND RELATED METHODS TO INDUCE OR PREVENT INFLAMMATORY CONDITIONS” (THE TEXAS A&M UNIVERSITY SYSTEM, priority 2016, published 2019)
“Also recorded” adds a separate entry of the source.

How the values were obtained:
NF-κB = conditions: intestinal epithelial cells (IECs); Bansal et al. 2010; cited from earlier work
CD4+ CD25− naïve T cells [1] = assay: In vitro naïve T cell differentiation, Treg-skew (FoxP3+ by FACS); format: cell-based, C57BL/6 mice; conditions: for effect on % FoxP3+ cells / Treg differentiation: vs DMF control; for % FoxP3+ cells: indole less than 500 μM
Procedure: (§1) Mesenteric lymph node (MLN) and spleen are harvested from WT or FOXP3^EGFP C57Bl/6 mice and homogenized. Spleen tissue is subjected to red blood cell lysis and pooled into a single cell suspension for counting. Counted cells are resuspended in sterile FACS buffer (PBS++ with 05% bovine serum albumin) at a concentration of ˜5×10^7 cells/mL and stained for 45 minutes at 4° C. with anti-CD4 and anti-CD25 fluorophore-conjugated monoclonal antibodies (mAb). After two washes, the stained cells are resuspended at ˜6×10^6 cells/mL in FACS buffer and immediately sorted. […] TDMMs are solubilized in DMF at 2 M and used at desired concentrations (e.g., 0.01, 0.1, 0.5 and 1.0 mM) in growth media; DMF in growth media (0.05%) is used as a solvent control.
(§2) The % of Treg or Th17 cells are determined based on the expression of signature transcription factors, FoxP3 and Rorγt, respectively. In addition, signature cytokine markers for Treg and Th17, TGFβ or IL-17, respectively, among others are measured using intracellular cytokine staining. Since it is possible that a cell could be positive for FoxP3 and still express some IL-17, the final % of Tregs are determined as the cell population that is FoxP3+TGFβ+ Rorγt-IL-17−. Similarly, the % of Th17 cells are determined as the population that is FoxP3-TGFβ− Rorγt+IL-17+.
(§3) CD4+ CD25− T cells were isolated to high purity (>98%) from the pooled spleen and mesenteric lymph nodes of C57BL/6 mice (Jackson Labs) with a BD FACS Aria II flow cytometer. Fc Block (BD), αCD4-efluor450 (eBioscience clone GK1.5) and αCD25-PECy7 (eBioscience clone PC61.5) antibodies were used for staining before sorting.
(§4) For Th1-skew: 5 ng/mL IL-12 (Peprotech cat. #210-12) and 10 µg/mL αIL-4 (BioXCell clone 11B11) were added to culture. For Th2-skew: 10 ng/mL IL-4 (Peprotech) and 10 μg/mL αIFN-γ (BioXCell clone R4-6A2) were added to culture. For Th17-skew: 10 ng/mL IL-6 (Peprotech), 5 ng/mL IL-23 (R&D), 0.5 ng/mL TGF-β (Peprotech), 10 μg/mL al-4 (BioXCell clone 11B11), and 10 μg/mL αIFN-γ (BioXCell clone R4-6A2) were added to culture. For Treg-skew: 2 ng/mL TGF-β (Peprotech) and 100 U/mL IL-2 (Roche) were added to culture. Sodium Propionate, sodium acetate, sodium butyrate and sodium chloride (all from Sigma-Aldrich) were solubilized in media and added to culture. Indole was solubilized in DMF (both from Sigma-Aldrich) at 2M and brought to final concentration in media. MGCD0103 (Selleck Chemicals) was solubilized in DMF at 2 mM and brought to final concentration in media. A 0.05% DMF solvent control was used for all experiments.

[2] = tested on: wild-type or AhR KO T cells; assay: T cell differentiation in wild-type vs AhR KO T cells; format: cell-based, mice
Procedure: The aryl hydrocarbon receptor (AhR) is implicated in the differentiation of Treg and Th17 cells. The role of AhR was assessed with respect to indole's effect on Treg augmentation. Wild-type and AhR KO naïve T-cells were conditioned with increasing amounts of indole and then assessed for % of FoxP3 expression. […] Additionally, the role of AhR was assessed with respect to indole's effect on Th17 inhibition.
The AhR knockout was further investigated for iTreg homing markers, CD62L and α4β7, as described above.
Next, the AhR knockout was further investigated for the impact of AhR on 5-HI-mediated T cell differentiation.

CD4+ CD25− naïve T cells [3] = assay: In vitro naïve T cell differentiation, Th17-skew (IL-17+ by FACS); format: cell-based, C57BL/6 mice; conditions: for effect on % IL-17+ cells / Th17 differentiation: vs DMF control
Procedure: as §1, §2, §3, §4

[4] = target: T1, aryl hydrocarbon receptor (AhR) (Homo sapiens, UniProt P35869); conditions: intestinal epithelial cells; Jin et al. 2014; cited from earlier work
T1 sequence (P35869 11-848): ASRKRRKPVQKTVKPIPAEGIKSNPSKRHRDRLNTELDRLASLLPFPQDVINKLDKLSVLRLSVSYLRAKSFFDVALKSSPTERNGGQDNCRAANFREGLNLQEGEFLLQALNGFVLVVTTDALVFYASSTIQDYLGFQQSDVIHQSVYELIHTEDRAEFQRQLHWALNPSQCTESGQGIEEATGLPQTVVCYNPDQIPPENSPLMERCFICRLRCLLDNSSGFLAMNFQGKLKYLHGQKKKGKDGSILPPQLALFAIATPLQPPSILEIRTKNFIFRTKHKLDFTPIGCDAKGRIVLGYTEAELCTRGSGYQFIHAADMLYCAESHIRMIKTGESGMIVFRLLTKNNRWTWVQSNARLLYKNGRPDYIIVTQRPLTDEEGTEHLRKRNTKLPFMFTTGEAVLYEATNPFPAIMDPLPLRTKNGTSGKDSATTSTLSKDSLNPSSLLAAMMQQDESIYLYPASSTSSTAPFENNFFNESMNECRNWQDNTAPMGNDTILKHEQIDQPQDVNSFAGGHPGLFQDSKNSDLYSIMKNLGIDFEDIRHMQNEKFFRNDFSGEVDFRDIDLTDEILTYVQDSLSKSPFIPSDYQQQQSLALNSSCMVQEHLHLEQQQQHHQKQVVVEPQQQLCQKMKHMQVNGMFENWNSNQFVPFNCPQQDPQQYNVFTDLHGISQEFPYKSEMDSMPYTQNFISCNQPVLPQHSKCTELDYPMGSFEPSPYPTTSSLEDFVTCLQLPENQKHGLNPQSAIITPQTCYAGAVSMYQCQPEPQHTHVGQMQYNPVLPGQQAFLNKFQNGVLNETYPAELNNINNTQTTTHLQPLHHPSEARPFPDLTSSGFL

SMILES: c1ccc2[nH]ccc2c1 [Indole, indole]
- NF-κB activation and indicators of inflammation (NF-κB): inhibits NF-κB activation and attenuates indicators of inflammation
- increase in the % of FOXP3+ cells compared to cells exposed to 1 mM indole (CD4+ CD25− naïve T cells [1]; 750 μM indole, absence of IL-4): 4%
- proportion of FoxP3+ iTregs (CD4+ CD25− naïve T cells [1]; 1 mM indole, Treg skewing conditions, solvent control 25%): 68.8%
- % FoxP3+ cells with reduced / titrated TGF-β (CD4+ CD25− naïve T cells [1]; TGF-β below threshold for Treg induction, low and high titrations): Treg induction occurs notwithstanding low levels of TGF-β; also recorded: increased the % FoxP3+ cells
- FoxP3 induction under Th0 conditions (CD4+ CD25− naïve T cells [1]; Th0 conditions (no TGF-β)): induced FoxP3 even under Th0 conditions
- % FoxP3+ cells, indole, butyrate and 5-HI all combined (CD4+ CD25− naïve T cells [1]; Treg skewing conditions): the % FoxP3+ increased again
- % FoxP3+ cells, indole combined with 5-HI (CD4+ CD25− naïve T cells [1]; Treg skewing conditions, vs 5-HI alone): negated the inhibitory effects of 5-HI on % FoxP3+ cells
- effect on % FoxP3+ cells / Treg differentiation (CD4+ CD25− naïve T cells [1]; Treg skewing conditions): significantly increased the % of FoxP3+ cells
- effect on % FoxP3+ cells / Treg differentiation (CD4+ CD25− naïve T cells [1]; Treg skewing conditions, listed as indole): dose-dependent; also recorded: strong pro-Treg response; also recorded: significantly increased the % FoxP3+ cells
- % FoxP3+ cells (CD4+ CD25− naïve T cells [1]; IL-4 6 ng/mL): 25%
- % FoxP3+ cells (CD4+ CD25− naïve T cells [1]; IL-4 10 ng/mL): 28%
- per-cell expression of FOXP3 (GFP) (CD4+ CD25− naïve T cells [1]; indole-induced iTregs, pre- and post-sort, 72 hours): higher per-cell expression of FOXP3 (GFP) both pre- and post-sort
- expansion of Tregs (Foxp3+ %) at standard TGF-β dose (CD4+ CD25− naïve T cells [1]; standard TGF-β dose): doubles
- level of FoxP3 expression (MFI) (CD4+ CD25− naïve T cells [1]; vs solvent control): significantly increased
- % IL-17+ in wild-type vs AhR KO T cells [2]: decreased significantly more in wild-type over AhR KO T cells
- AhR dependence of effects (AhR knockout mice, unpublished data) [2]: some of the effects of indole are not AhR dependent
- FoxP3+ % in wild-type vs AhR KO T cells ([2]; increasing amounts of test substance): increased significantly more in wild-type over AhR KO T cells
- expression of CD62L and α4β7 in FoxP3+ wild-type or AhR KO T cells ([2]; with or without RA): roughly equivalent with only minor differences
- expansion of Th17 cells (proportion) (CD4+ CD25− naïve T cells [3]; 1 mM indole, Th17-skewing conditions, solvent control 13.5%): 1.4%
- % IL-17+ cells, indole added to butyrate and 5-HI (CD4+ CD25− naïve T cells [3]; Th17 skewing conditions): generally reversed after conditioning with indole
- % IL-17+ cells, indole combined with 5-HI (CD4+ CD25− naïve T cells [3]; Th17 skewing conditions, vs 5-HI alone): not just negated, but actually reversed
- effect on % IL-17+ cells / Th17 differentiation (CD4+ CD25− naïve T cells [3]; Th17 skewing conditions): significantly decreased the % of IL-17+ cells
- effect on % IL-17+ cells / Th17 differentiation (CD4+ CD25− naïve T cells [3]; Th17 skewing conditions, listed as indole): dose-dependent; also recorded: inhibits a Th17 response; also recorded: inhibits the development of illustrates % IL-17+ cells
- Rorγt expression in Th17 cells (CD4+ CD25− naïve T cells [3]; unpublished data): inhibits Rorγt expression in Th17 cells
- level of IL-17 expression (MFI) (CD4+ CD25− naïve T cells [3]; vs solvent control): decreased
- AhR agonist/antagonist activity [4]: acts as both an agonist and antagonist
